From patent US20240226072A1 (Stichting Het Nederlands Kanker Instituut, priority 2022, published 2024)
Like-named read-outs stand apart in the source and are kept apart here.

Columns and labels:
[1] = Plasma pharmacokinetics and tissue distribution 2 h after oral cabazitaxel 10 mg/kg with vehicle or 25 mg/kg ritonavir in wild-type, Oatp1a/1b−/−, Oatp1a/1b/2b1−/−, OATP1B1- and OATP1B3-transgenic mice; format: in vivo; details: for Kp at 2 h / Cmax / Tmax / AUC(0-t): male, FVB, mouse; for Cmax / Tmax / AUC(0-t): plasma; for AUC(0-t): read-out: AUC0-2 h; for enhancement of AUC0-2h by ritonavir: ritonavir 25 mg/kg compared to vehicle group; for Kp at 2 h / CLiver / Cbrain / Pbrain, brain accumulation per h / SIC (% of dose), small intestinal content: 2 h
Protocol: All animals were fasted 2 to 3 hours prior to the start of the experiment to minimize variation in absorption after oral administration. […] Subsequently, cardiac puncture was performed with a heparinized needle and syringe collecting a final blood sample. […] All samples were stored at −30° C. until analysis.
Differences were considered statistically significant when P<0.05. All data are presented as geometric mean±SD.

in vivo = details: mouse; for AUC(0-t) / AUC0-24 h: po; for AUC(0-t): AUC0-24 h
Protocol: The Jevtana (10 mg/mL) solution contains 0.26 mg/mL polysorbate 80 and 15% (w/v) ethanol, and is adjusted to pH 2-6 with citric acid. […] The stock solution was further diluted 5-fold with water to reach a 2.5 mg/mL dosing solution for oral administration. The vehicle solution only consists of polysorbate 80, ethanol and water (1:1:8, v/v/v). […] All dosing solutions were prepared freshly on the day of the experiment.
At the termination time point of 24 hours, mice were anesthetized using an isoflurane evaporator with 3% isoflurane with 0.8 L/min air and 0.3 L/min oxygen. A final blood sample was taken using cardiac puncture, using Eppendorf tubes previously prepared with heparin as an anticoagulant. Subsequently, the anesthetized mice were sacrificed by cervical dislocation and the tissues of interest were collected. Brain, liver, spleen, kidney, small intestine, and testis were collected. The small intestinal content (SIC) was separately collected by removing this from the small intestinal tissue, which was subsequently rinsed with saline to remove possibly fecal residue. The blood samples were centrifuged at 9,000×g for 6 minutes at 4° C., and the plasma fraction was isolated and stored at −30° C. until analysis. Brain, liver, spleen, kidney, small intestinal tissue, SIC, and testis were homogenized in a FastPrep-24™ 5G homogenizer (M. P. Biomedicals, Santa Ana, CA, USA) for 1 min with 1, 3, 1, 2, 3, 2, and 1 mL of 2% (w/v) BSA in Milli-Q water, respectively. Until analysis of the samples, they were all stored at −30° C.
Pharmacokinetic parameters were estimated by non-compartmental analysis using the software package of PK solutions 2.0.2 (SUMMIT, Research Service). The area under the curve (AUC) of the plasma-concentration time curve for all the compounds was calculated using the linear trapezoidal rule without extrapolating to infinity. The peak plasma concentration (Cmax) and the time to reach peak plasma concentration (Tmax) were obtained directly from the individual raw data. For the statistical analysis and the graphs GraphPad Prism 9 (GraphPad Software Inc., La Jolla, CA, USA) was used. The statistics for the comparison of multiple groups were calculated with the one-way analysis of variance (ANOVA), whereas Sidak's post hoc correction was performed. Log-transformation before statistical analysis was applied, when variances within the groups were not homogeneously distributed. Differences were considered statistically significant when P<0.05. All data are presented as geometric mean±SD.

[2] = po, 10 mg/kg, OATP1B1-transgenic mice, ritonavir 25 mg/kg oral, cabazitaxel 10 mg/kg oral
[3] = po, 10 mg/kg, OATP1B1-transgenic mice, vehicle pretreatment, oral 10 mg/kg cabazitaxel
[4] = po, 10 mg/kg, OATP1B1-transgenic mice, vehicle, cabazitaxel 10 mg/kg oral
[5] = po, 10 mg/kg, OATP1B3-transgenic mice, ritonavir 25 mg/kg oral, cabazitaxel 10 mg/kg oral
[6] = po, 10 mg/kg, OATP1B3-transgenic mice, vehicle pretreatment, oral 10 mg/kg cabazitaxel
[7] = po, 10 mg/kg, OATP1B3-transgenic mice, vehicle, cabazitaxel 10 mg/kg oral
[8] = po, 10 mg/kg, Oatp1a/1b/2b1−/− mice, ritonavir 25 mg/kg oral, cabazitaxel 10 mg/kg oral
[9] = po, 10 mg/kg, Oatp1a/1b/2b1−/− mice, vehicle pretreatment, oral 10 mg/kg cabazitaxel
[10] = po, 10 mg/kg, Oatp1a/1b/2b1−/− mice, vehicle, cabazitaxel 10 mg/kg oral
[11] = po, 10 mg/kg, Oatp1a/1b−/− mice, ritonavir 25 mg/kg oral, cabazitaxel 10 mg/kg oral
[12] = po, 10 mg/kg, Oatp1a/1b−/− mice, vehicle pretreatment, oral 10 mg/kg cabazitaxel
[13] = po, 10 mg/kg, Oatp1a/1b−/− mice, vehicle, cabazitaxel 10 mg/kg oral
[14] = po, 10 mg/kg, wild-type mice, ritonavir 25 mg/kg oral, cabazitaxel 10 mg/kg oral
[15] = po, 10 mg/kg, wild-type mice, vehicle pretreatment, oral 10 mg/kg cabazitaxel
[16] = po, 10 mg/kg, wild-type mice, vehicle, cabazitaxel 10 mg/kg oral
[17] = wild-type mice, ritonavir 25 mg/kg oral, cabazitaxel 10 mg/kg oral
[18] = wild-type mice, vehicle, cabazitaxel 10 mg/kg oral

Structure (SMILES): CO[C@H]1C(=O)[C@]2(C)[C@@H](OC)C[C@H]3OC[C@@]3(OC(C)=O)[C@H]2[C@H](OC(=O)c2ccccc2)[C@]2(O)C[C@H](OC(=O)[C@H](O)[C@@H](NC(=O)OC(C)(C)C)c3ccccc3)C(C)=C1C2(C)C [cabazitaxel]
- Kp at 2 h ([1]; brain/plasma, po, 10 mg/kg, wild-type mice, vehicle, cabazitaxel 10 mg/kg oral, read-out: Brain-to-plasma ratio): 0.069
- Kp at 2 h ([1]; brain/plasma, po, OATP1B1-transgenic mice, ritonavir 25 mg/kg oral, cabazitaxel 10 mg/kg oral, read-out: Brain-to-plasma ratio): 0.045
- Kp at 2 h ([1]; brain/plasma, po, OATP1B3-transgenic mice, ritonavir 25 mg/kg oral, cabazitaxel 10 mg/kg oral, read-out: Brain-to-plasma ratio): 0.046
- Kp at 2 h ([1]; brain/plasma, po, Oatp1a/1b/2b1−/− mice, ritonavir 25 mg/kg oral, cabazitaxel 10 mg/kg oral, read-out: Brain-to-plasma ratio): 0.047
- Kp at 2 h ([1]; brain/plasma, po, Oatp1a/1b−/− mice, ritonavir 25 mg/kg oral, cabazitaxel 10 mg/kg oral, read-out: Brain-to-plasma ratio): 0.055
- Kp at 2 h ([1]; brain/plasma, po, wild-type mice, ritonavir 25 mg/kg oral, cabazitaxel 10 mg/kg oral, read-out: Brain-to-plasma ratio): 0.036
- Kp at 2 h ([1]; liver, oral, 10 mg/kg, OATP1B1-transgenic mice, vehicle, cabazitaxel 10 mg/kg oral, read-out: Liver-to-plasma ratio): 3.1
- Kp at 2 h ([1]; liver, oral, 10 mg/kg, OATP1B3-transgenic mice, vehicle, cabazitaxel 10 mg/kg oral, read-out: Liver-to-plasma ratio): 3.61
- Kp at 2 h ([1]; liver, oral, 10 mg/kg, Oatp1a/1b/2b1−/− mice, vehicle, cabazitaxel 10 mg/kg oral, read-out: Liver-to-plasma ratio): 3.84
- Kp at 2 h ([1]; liver, oral, 10 mg/kg, Oatp1a/1b−/− mice, vehicle, cabazitaxel 10 mg/kg oral, read-out: Liver-to-plasma ratio): 3.95
- Kp at 2 h ([1]; liver, oral, 10 mg/kg, wild-type mice, vehicle, cabazitaxel 10 mg/kg oral, read-out: Liver-to-plasma ratio): 3.93
- Kp at 2 h ([1]; liver, oral, OATP1B1-transgenic mice, ritonavir 25 mg/kg oral, cabazitaxel 10 mg/kg oral, read-out: Liver-to-plasma ratio): 3.84
- Kp at 2 h ([1]; liver, oral, OATP1B3-transgenic mice, ritonavir 25 mg/kg oral, cabazitaxel 10 mg/kg oral, read-out: Liver-to-plasma ratio): 4.15
- Kp at 2 h ([1]; liver, oral, Oatp1a/1b/2b1−/− mice, ritonavir 25 mg/kg oral, cabazitaxel 10 mg/kg oral, read-out: Liver-to-plasma ratio): 3.95
- Kp at 2 h ([1]; liver, oral, Oatp1a/1b−/− mice, ritonavir 25 mg/kg oral, cabazitaxel 10 mg/kg oral, read-out: Liver-to-plasma ratio): 3.62
- Kp at 2 h ([1]; liver, oral, wild-type mice, ritonavir 25 mg/kg oral, cabazitaxel 10 mg/kg oral, read-out: Liver-to-plasma ratio): 3.32
- Cmax [1, 2]: 4670 nM
- Tmax [1, 2]: 65 min
- Cmax [1, 3]: 2730 ± 855 nM
- Tmax [1, 3]: 27.5 min
- AUC(0-t) ([1]; po, 10 mg/kg, OATP1B1-transgenic mice, vehicle pretreatment, oral 10 mg/kg cabazitaxel, 0-2 h): 3.7 ± 1.23 µM·h
- Cmax [1, 4]: 2730 nM
- Tmax [1, 4]: 27.5 min
- Cmax [1, 5]: 3860 nM
- Tmax [1, 5]: 60 min
- Cmax [1, 6]: 2690 ± 761 nM
- Tmax [1, 6]: 27.5 min
- AUC(0-t) ([1]; po, 10 mg/kg, OATP1B3-transgenic mice, vehicle pretreatment, oral 10 mg/kg cabazitaxel, 0-2 h): 3.51 ± 1.19 µM·h
- Cmax [1, 7]: 2690 nM
- Tmax [1, 7]: 27.5 min
- Cmax [1, 8]: 4270 nM
- Tmax [1, 8]: 70 min
- Cmax [1, 9]: 2740 ± 1100 nM
- Tmax [1, 9]: 26.7 min
- AUC(0-t) ([1]; po, 10 mg/kg, Oatp1a/1b/2b1−/− mice, vehicle pretreatment, oral 10 mg/kg cabazitaxel, 0-2 h): 2.88 ± 0.616 µM·h
- Cmax [1, 10]: 2740 nM
- Tmax [1, 10]: 26.7 min
- Cmax [1, 11]: 4700 nM
- Tmax [1, 11]: 80 min
- Cmax [1, 12]: 2120 ± 398 nM
- Tmax [1, 12]: 24.2 min
- AUC(0-t) ([1]; po, 10 mg/kg, Oatp1a/1b−/− mice, vehicle pretreatment, oral 10 mg/kg cabazitaxel, 0-2 h): 2.62 ± 0.417 µM·h
- Cmax [1, 13]: 2120 nM
- Tmax [1, 13]: 24.2 min
- Cmax [1, 14]: 4530 nM
- Tmax [1, 14]: 120 min
- Cmax [1, 15]: 2820 ± 694 nM
- Tmax [1, 15]: 25.8 min
- AUC(0-t) ([1]; po, 10 mg/kg, wild-type mice, vehicle pretreatment, oral 10 mg/kg cabazitaxel, 0-2 h): 3.28 ± 1.32 µM·h
- Cmax [1, 16]: 2820 nM
- Tmax [1, 16]: 25.8 min
- AUC(0-t) ([1]; wild-type, po, 10 mg/kg, wild-type mice, ritonavir 25 mg/kg oral, cabazitaxel 10 mg/kg oral): 7.62 µM·h
- AUC(0-t) ([1]; wild-type, po, 10 mg/kg, wild-type mice, vehicle, cabazitaxel 10 mg/kg oral): 3.28 µM·h
- enhancement of AUC0-2h by ritonavir ([1]; transgenic OATP1B1 mice): 2.1 fold
- enhancement of AUC0-2h by ritonavir ([1]; transgenic OATP1B3 mice): 1.9 fold
- CLiver [1, 17]: 21554 pmol/g
- Cbrain [1, 17]: 235 pmol/g
- Pbrain, brain accumulation per h [1, 17]: 0.026 h⁻¹
- SIC (% of dose), small intestinal content [1, 17]: 1.34 % of dose
- CLiver [1, 18]: 2703 pmol/g
- Cbrain [1, 18]: 50.0 pmol/g
- Pbrain, brain accumulation per h [1, 18]: 0.013 h⁻¹
- SIC (% of dose), small intestinal content [1, 18]: 1.14 % of dose
- increase in AUC0-24h (in vivo; male, Cyp3aXAV (FVB background), 10 mg/kg): 10.1 fold
- AUC(0-t) (in vivo; male, Cyp3aXAV (human CYP3A in Cyp3a−/−, FVB background), 10 mg/kg): 1.24 ± 0.177 µM·h
- AUC0-24 h (in vivo; male, FVB, Cyp3aXAV, 10 mg/kg): 12.515 µM·h
- AUC(0-t) (in vivo; male, FVB, Cyp3aXAV, 10 mg/kg): 12.5 ± 5.41 µM·h
- AUC0-24 h (in vivo; male, FVB, wild-type, 10 mg/kg): 72.771 µM·h
- AUC(0-t) (in vivo; male, FVB, wild-type, 10 mg/kg): 72.8 ± 2.62 µM·h
- alteration in AUC0-24h (in vivo; 1 mg/kg): no alteration
